The values that follow come from the OPERA property sets (Mansouri et al. 2018).

As usually defined, the boiling point is the temperature at which the vapour pressure of the liquid equals the pressure above it. For orientation: melting point means the temperature, or range, at which the solid turns liquid.

Conditions in the first series: not given
Regarding `CCCCCc1ccc(O)cc1`, the boiling point is 250 °C and the melting point stood at 23 °C.

Compound `OC[C@@H](O)[C@@H](O)CO` displayed a boiling point of 330 °C and a melting point of 122 °C. Consider `O=C1C=CC(=O)N1`, for which the melting point amounted to 94 °C.

In turn, `CCCCCCCCCCCCCCCCCCOC(C)=O` registered a melting point of 34.5 °C. Same read-out and setting: under `CCCCCCCCCCCCCCCCCCCCCCCCCCCCCC(=O)O` stands 93.6 °C. For `CC(C)C(C)C(C)C`, the boiling point came to 114 °C, the log10 biodegradation half-life (days) was 1.18, the log10 vapour pressure (mmHg) was 1.43 and the melting point is -109 °C. Consider `FC(Cl)C(Cl)Cl` (configuration not stated), for which the boiling point amounted to 102 °C. In turn, `O=Cc1ccncc1` yielded a log10 Henry constant (atm·m³/mol) of -6.75.

Turning to `C1CCN2C[C@@H]3C[C@@H](CN4CCCC[C@@H]34)[C@H]2C1`, the boiling point was 325 °C and the melting point was found to be 30.5 °C. Take `Cc1cccc(CBr)c1`: the boiling point was 212 °C. Compound `C[C@]12Cc3nonc3C[C@@H]1CC[C@@H]1[C@@H]2CC[C@@]2(C)[C@H]1CC[C@]2(C)O` yielded a melting point of 152 °C. With `COc1ccc(OC)c(Cl)c1`, the ready biodegradability result is “not readily biodegradable”.

As for `CCC(C)CC`, the boiling point came out at 63.2 °C, the log10 vapour pressure (mmHg) amounted to 2.28 and the melting point was -163 °C. `OC[C@]1(O)OC[C@@H](O)[C@H](O)[C@@H]1O` yielded a melting point of 134 °C. In turn, `Clc1ccc(Cl)c(-c2ccccc2Cl)c1` returned a log10 Henry constant (atm·m³/mol) of -3.6, a log10 Koa of 7.6, a log10 Koc (L/kg) of 4.4 and a log10 vapour pressure (mmHg) of -2.98. The compound `CN(C)CCCO` displayed a boiling point of 164 °C. `O=CN1CCOCC1`: the boiling point was found to be 239 °C and the melting point is 21 °C. In the case of `Nc1ccc2cc(S(=O)(=O)O)cc(O)c2c1`, the ready biodegradability entry was “not readily biodegradable”. `COc1cc(Cl)ccc1N`: the boiling point was 260 °C and the melting point stood at 52 °C. With `CC(=O)n1ccnc1`, the melting point amounted to 102 °C.

With `CC(=O)OC(C)CC(C)C` (configuration not stated), the boiling point amounted to 148 °C, the log10 vapour pressure (mmHg) was 0.602, the melting point is -64 °C and the ready biodegradability result is “readily biodegradable”. As to `Clc1ccc(-c2ccc(Cl)c(Cl)c2)cc1Cl`, the log10 Henry constant (atm·m³/mol) was -5.03, the log10 Koa turned out to be 9.7 and the log10 vapour pressure (mmHg) was -4.78. For the compound `C=Cc1cccc(C)c1`, the boiling point was 164 °C, the log10 vapour pressure (mmHg) stood at 0.231 and the melting point is -86.3 °C. Turning to `NC(=O)c1cccc(Br)c1`, the melting point was determined as 155 °C. For `O=[N+]([O-])c1ccc(Oc2ccc(Cl)cc2Cl)cc1`, the log10 Koc (L/kg) was found to be 4, the melting point was 70 °C and the ready biodegradability entry is given as “not readily biodegradable”. Compound `Cc1cc(O)cc(O)c1C` showed a boiling point of 284 °C and a melting point of 136 °C. Take `CCCCOCCOC(=O)COc1cc(Cl)c(Cl)cc1Cl`: the log10 vapour pressure (mmHg) was -5.82. The compound `CCC(C)C(C)O` (configuration not stated) came in with a boiling point of 134 °C. Compound `Cn1c(=O)on(-c2ccc(Cl)c(Cl)c2)c1=O` displayed a log10 Koc (L/kg) of 3.48, a log10 vapour pressure (mmHg) of -6 and a melting point of 123 °C. With `Cc1ccc(O)cc1`, the boiling point came to 202 °C, the log10 Henry constant (atm·m³/mol) is -6, the log10 Koc (L/kg) was 2.7 and the log10 vapour pressure (mmHg) is -0.959. Also, the melting point stood at 35.5 °C and the ready biodegradability entry is “readily biodegradable”.

As for `C[NH+](C)CCC(c1ccc(Cl)cc1)c1ccccn1.O=C([O-])/C=C\C(=O)O` (configuration not stated), the melting point was 132 °C.

`S=C=NCc1ccccc1` returned a boiling point of 243 °C and a log10 vapour pressure (mmHg) of -1.81.

For the compound `CC[N+](CC)(CC)CCOC(=O)C(C1CCCC1)C1CCCC1.[Br-]`, the melting point worked out at 186 °C. On to `Clc1ccc(Cl)c(Cl)c1`, for which the boiling point amounted to 214 °C, the log10 Henry constant (atm·m³/mol) is -2.85, the log10 Koa was 4.95 and the log10 Koc (L/kg) stood at 3.1. In addition, the log10 vapour pressure (mmHg) is -0.337, the melting point was determined as 17 °C and the ready biodegradability result is recorded as “not readily biodegradable”.

As to `C=CCCC(C)O` (configuration not stated), the boiling point is 139 °C.

`C#CCCC(C)C` registered a boiling point of 92 °C and a melting point of -125 °C. Take `O=C(OCC(O)CO)c1ccccc1Nc1ccnc2c(C(F)(F)F)cccc12` (configuration not stated): the melting point was 180 °C.

With `CCC(C)=NO`, the boiling point came out at 152 °C, the melting point is -29.5 °C and the ready biodegradability result is listed as “not readily biodegradable”. Regarding `C=CCSCC=C`, the boiling point was found to be 139 °C, the log10 vapour pressure (mmHg) was 0.965 and the melting point was -85 °C.

On to `CCC(=O)O[C@H]1CC[C@@]2(C)C(=CC[C@H]3[C@@H]4CC[C@H](OC(=O)CC)[C@@]4(C)CC[C@@H]32)C1`, for which the melting point was 113 °C.

As for `CCCCCCCCCCCCCCCCOCCCCCCCCCCCCCCCC`, the melting point amounted to 55 °C and the ready biodegradability result is “not readily biodegradable”. Consider `C1CN2CCN1CC2`, for which the boiling point came to 174 °C, the log10 vapour pressure (mmHg) was -0.13, the melting point came out at 159 °C and the ready biodegradability entry is reported as “not readily biodegradable”. Take `OCCCOCCCO`: the ready biodegradability result is given as “not readily biodegradable”.

Regarding `CC(O)=S`, the boiling point worked out at 93 °C. Consider `CC(=O)Oc1ccc([N+](=O)[O-])cc1`, for which the melting point was determined as 78 °C. `O=C1c2ccccc2C(=O)C1c1ccccc1` displayed a melting point of 150 °C. As for `CC(=O)C1CCOC1=O` (configuration not stated), the ready biodegradability result is recorded as “readily biodegradable”.

As for `O=C1C=C(Cl)C(=O)O1`, the boiling point was 196 °C and the melting point was 33 °C. Regarding `C=CCc1cc(OC)c2c(c1OC)OCO2`, the boiling point came to 294 °C and the melting point came to 29.5 °C.

`CCCCC(CC)COCCO` (configuration not stated) had a boiling point of 229 °C. Regarding `FC(F)(F)C(F)(F)C(F)(F)C(F)(F)C(F)(F)C(F)(F)F`, the boiling point was determined as 56.6 °C, the log10 vapour pressure (mmHg) came out at 2.34 and the melting point was -87.1 °C. Regarding `C=Cc1scnc1C`, the melting point is -15 °C. For `CC/C=C/C(C)C`, the boiling point turned out to be 85.9 °C and the melting point was -142 °C.

On to `CO[Si](C)(OC)OC`, for which the boiling point came to 102 °C. Compound `FC(F)(F)C1(F)C(F)(F)C(F)(F)C(F)(C(F)(F)F)C(F)(F)C1(F)F` (configuration not stated) yielded a boiling point of 100 °C. The compound `COc1nc(C)nc(N)n1` showed a melting point of 260 °C.

`CC1=CC(=O)CCC1(C)C` came in with a boiling point of 217 °C. `CCC(C)(CC)C(C)C`: the boiling point is 145 °C.

Take `O=C(O)CCBr`: the melting point was 62.5 °C. The same measure, in the same setting: then `CCN1C(=O)NC(c2ccccc2)C1=O` (configuration not stated), with 94 °C. Regarding `CC(=O)Nc1ccc([N+](=O)[O-])cc1`, the melting point stood at 216 °C. For the compound `N#Cc1c(Cl)c(Cl)c(Cl)c(Cl)c1C#N`, the ready biodegradability entry is “not readily biodegradable”. In turn, `CC(=O)OCC(C)C` gave a boiling point of 116 °C, a log10 Henry constant (atm·m³/mol) of -3.34, a log10 Koa of 3.45 and a log10 vapour pressure (mmHg) of 1.25. The melting point is -98.8 °C and the ready biodegradability result is listed as “readily biodegradable”. `CC1(C)[C@H](C(=O)O[C@H](C#N)c2cccc(Oc3ccccc3)c2)[C@@H]1/C=C\C(=O)OC(C(F)(F)F)C(F)(F)F` gave a log10 vapour pressure (mmHg) of -9.48 and a melting point of 81.5 °C. As to `OC1CCOC1` (configuration not stated), the boiling point stood at 181 °C.

In turn, `CCCCCCCCCCCCCCCC(=O)OCC` displayed a log10 vapour pressure (mmHg) of -4.63 and a melting point of 24 °C. In turn, `NCC[C@H](O)C(=O)N[C@@H]1C[C@H](N)[C@@H](O[C@H]2O[C@H](CN)[C@@H](O)[C@H](O)[C@H]2O)[C@H](O)[C@H]1O[C@H]1O[C@H](CO)[C@@H](O)[C@H](N)[C@H]1O` yielded a melting point of 204 °C.

With `O=S(c1ccccc1)c1ccccc1`, the melting point amounted to 71.2 °C.

On to `O=C(O)c1cccc(S(=O)(=O)O)c1`, for which the ready biodegradability result was “not readily biodegradable”. For the compound `Cn1ccccc1=O`, the boiling point worked out at 250 °C and the melting point turned out to be 31 °C.

In turn, `c1ccc2cc3c(ccc4cc5ccccc5cc43)cc2c1` registered a melting point of 257 °C.

Take `O=c1cc(-c2ccccc2)oc2ccccc12`: the melting point was determined as 100 °C.

The series is the same for the next values; noted with them: fish.
Compound `Clc1ccc(Cl)c(-c2ccccc2Cl)c1` came in with a log10 BCF of 4.23 and a log10 biotransformation half-life (days) of 1.87. In the case of `Nc1ccc2cc(S(=O)(=O)O)cc(O)c2c1`, the log10 BCF is 0.61. Compound `Clc1ccc(-c2ccc(Cl)c(Cl)c2)cc1Cl` came in with a log10 BCF of 4.62 and a log10 biotransformation half-life (days) of 1.35.

For the compound `C=Cc1cccc(C)c1`, the log10 BCF came to 1.55. The same measure, in the same setting: under `C=CCOP(=O)(OCC=C)OCC=C` stands 0.08. In turn, `Clc1ccc(Cl)c(Cl)c1` registered a log10 BCF of 3.32 and a log10 biotransformation half-life (days) of 1.2. Regarding `CCC(C)=NO`, the log10 BCF stood at 0.7 and the log10 biotransformation half-life (days) is -1.33.
